Assay results taken from patent US20090246281A1, “Soft steroid compositions for use in dry powder inhalers” (Norton Healthcare Ltd., priority 2003, published 2009).

Test: Stability of EDA dry mix versus EDA solutions in solvents
Assay type: physicochemical
Source text: In comparison, solutions prepared by dissolving 2 wt % EDA in a) pure methanol, b) pure ethanol, c) methanol+10 wt % water (pH 4.5) and d) ethanol+10% water (pH 4.5), were stable for 2 days, 2 days, 4 days and 4 days, respectively.

In the case of `CCOC(=O)[C@@]1(OC(=O)C(Cl)Cl)CCC2C3CCC4=CC(=O)C=CC4(C)C3C(O)CC21C` (stereo partly drawn) [EDA, ethyl 17α-dichloroacetoxy-11β-hydroxyandrosta-1,4-dien-3-one-17β-carboxylate], the “Time stable in solution” value (2 wt % EDA in ethanol+10% water (pH 4.5)) was 4 days, the “Time stable in solution” value (2 wt % EDA in methanol+10 wt % water (pH 4.5)) was 4 days and the “Time stable in solution” value (2 wt % EDA in pure ethanol) was 2 days. For the same compound, the “Time stable in solution” value (2 wt % EDA in pure methanol) was 2 days.
